Experimental data taken from the supplement of paper PMC10307832.

Assays:
Experiment in all cases: relative viability (nuclei count vs DMSO), 5 days (fraction); higher = more cells survive
NCI-H1666 = tested on: NCI-H1666
How it was run: (§1)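 Relative viability is defined as nuclei in treated wells over nuclei in vehicle wells. Duplicate plates were run and medians reported. Lung cancer cell lines in 1536-well plates were dosed by pin tool one day after seeding, with one drug or with a fixed anchor-drug dose plus five library-drug doses (not always all listed) in √10 steps, and nuclei were counted after 5 days.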

BEN = tested on: BEN
How it was run: as §1

NCI-H647 = tested on: NCI-H647
How it was run: as §1

201T = tested on: 201T
How it was run: as §1

NCI-H2087 = tested on: NCI-H2087
How it was run: as §1

HCC-44 = tested on: HCC-44
How it was run: as §1

COR-L 105 = tested on: COR-L 105
How it was run: as §1

NCI-H2342 = tested on: NCI-H2342
How it was run: as §1

HCC-827 = tested on: HCC-827
How it was run: as §1

NCI-H1975 = tested on: NCI-H1975
How it was run: as §1

NCI-H2085 = tested on: NCI-H2085
How it was run: as §1

NCI-H2126 = tested on: NCI-H2126
How it was run: as §1

SW 1573 = tested on: SW 1573
How it was run: as §1

EPLC-272H = tested on: EPLC-272H
How it was run: as §1

LU99A = tested on: LU99A
How it was run: as §1

H3255 = tested on: H3255
How it was run: as §1

LCLC-97TM1 = tested on: LCLC-97TM1
How it was run: as §1

HOP-62 = tested on: HOP-62
How it was run: as §1

LOU-NH91 = tested on: LOU-NH91
How it was run: as §1

NCI-H1437 = tested on: NCI-H1437
How it was run: as §1

NCI-H358 = tested on: NCI-H358
How it was run: as §1

EKVX = tested on: EKVX
How it was run: as §1

PC-3 [JPC-3] = tested on: PC-3 [JPC-3]
How it was run: as §1

NCI-H1395 = tested on: NCI-H1395
How it was run: as §1

Structure (SMILES): C[C@@H]1CN(CC(=O)Nc2ccc3c(c2)Cc2cccc(-c4cc(=O)cc(N5CCOCC5)o4)c2S3)C[C@H](C)O1 + O=C(c1cc(Cc2n[nH]c(=O)c3ccccc23)ccc1F)N1CCN(C(=O)C2CC2)CC1 [Olaparib] (partner 8 µM)
- relative viability (NCI-H1666; first compound 0.04 µM): 0.713
- relative viability (NCI-H1666; first compound 0.1265 µM): 0.767
- relative viability (NCI-H1666; first compound 0.4 µM): 0.659
- relative viability (NCI-H1666; first compound 4 µM): 0.468
- relative viability (BEN; first compound 0.04 µM): 0.969
- relative viability (BEN; first compound 0.1265 µM): 1.13
- relative viability (BEN; first compound 0.4 µM): 1.11
- relative viability (BEN; first compound 4 µM): 0.69
- relative viability (NCI-H647; first compound 0.04 µM): 0.611
- relative viability (NCI-H647; first compound 0.1265 µM): 0.436
- relative viability (NCI-H647; first compound 0.4 µM): 0.417
- relative viability (NCI-H647; first compound 4 µM): 0.0936
- relative viability (201T; first compound 0.04 µM): 0.839
- relative viability (201T; first compound 0.1265 µM): 0.816
- relative viability (201T; first compound 0.4 µM): 0.793
- relative viability (201T; first compound 4 µM): 0.783
- relative viability (NCI-H2087; first compound 0.04 µM): 0.649
- relative viability (NCI-H2087; first compound 0.1265 µM): 0.546
- relative viability (NCI-H2087; first compound 0.4 µM): 0.602
- relative viability (NCI-H2087; first compound 4 µM): 0.214
- relative viability (HCC-44; first compound 0.04 µM): 0.94
- relative viability (HCC-44; first compound 0.1265 µM): 1.02
- relative viability (HCC-44; first compound 0.4 µM): 0.955
- relative viability (HCC-44; first compound 4 µM): 0.969
- relative viability (COR-L 105; first compound 0.04 µM): 0.772
- relative viability (COR-L 105; first compound 0.1265 µM): 0.786
- relative viability (COR-L 105; first compound 0.4 µM): 0.822
- relative viability (COR-L 105; first compound 4 µM): 0.647
- relative viability (NCI-H2342; first compound 0.04 µM): 0.567
- relative viability (NCI-H2342; first compound 0.1265 µM): 0.52
- relative viability (NCI-H2342; first compound 0.4 µM): 0.52
- relative viability (NCI-H2342; first compound 4 µM): 0.419
- relative viability (HCC-827; first compound 0.04 µM): 0.674
- relative viability (HCC-827; first compound 0.1265 µM): 0.653
- relative viability (HCC-827; first compound 0.4 µM): 0.678
- relative viability (HCC-827; first compound 4 µM): 0.438
- relative viability (NCI-H1975; first compound 0.04 µM): 0.78
- relative viability (NCI-H1975; first compound 0.1265 µM): 0.748
- relative viability (NCI-H1975; first compound 0.4 µM): 0.713
- relative viability (NCI-H1975; first compound 4 µM): 0.274
- relative viability (NCI-H2085; first compound 0.04 µM): 0.755
- relative viability (NCI-H2085; first compound 0.1265 µM): 0.786
- relative viability (NCI-H2085; first compound 0.4 µM): 0.781
- relative viability (NCI-H2085; first compound 4 µM): 0.345
- relative viability (NCI-H2126; first compound 0.04 µM): 0.928
- relative viability (NCI-H2126; first compound 0.1265 µM): 0.873
- relative viability (NCI-H2126; first compound 0.4 µM): 0.95
- relative viability (NCI-H2126; first compound 4 µM): 0.928
- relative viability (SW 1573; first compound 0.04 µM): 0.553
- relative viability (SW 1573; first compound 0.1265 µM): 0.546
- relative viability (SW 1573; first compound 0.4 µM): 0.495
- relative viability (SW 1573; first compound 4 µM): 0.21
- relative viability (EPLC-272H; first compound 0.04 µM): 0.956
- relative viability (EPLC-272H; first compound 0.1265 µM): 0.81
- relative viability (EPLC-272H; first compound 0.4 µM): 0.647
- relative viability (EPLC-272H; first compound 4 µM): 0.317
- relative viability (LU99A; first compound 0.04 µM): 0.316
- relative viability (LU99A; first compound 0.1265 µM): 0.282
- relative viability (LU99A; first compound 0.4 µM): 0.259
- relative viability (LU99A; first compound 4 µM): 0.246
- relative viability (H3255; first compound 0.04 µM): 0.554
- relative viability (H3255; first compound 0.1265 µM): 0.532
- relative viability (H3255; first compound 0.4 µM): 0.522
- relative viability (H3255; first compound 4 µM): 0.452
- relative viability (LCLC-97TM1; first compound 0.1265 µM): 0.381
- relative viability (LCLC-97TM1; first compound 0.4 µM): 0.462
- relative viability (LCLC-97TM1; first compound 4 µM): 0.37
- relative viability (HOP-62; first compound 0.04 µM): 0.283
- relative viability (HOP-62; first compound 0.1265 µM): 0.442
- relative viability (HOP-62; first compound 0.4 µM): 0.452
- relative viability (HOP-62; first compound 4 µM): 0.0812
- relative viability (LOU-NH91; first compound 0.04 µM): 0.938
- relative viability (LOU-NH91; first compound 0.1265 µM): 0.964
- relative viability (LOU-NH91; first compound 0.4 µM): 0.907
- relative viability (LOU-NH91; first compound 4 µM): 0.721
- relative viability (NCI-H1437; first compound 0.04 µM): 0.613
- relative viability (NCI-H1437; first compound 0.1265 µM): 0.635
- relative viability (NCI-H1437; first compound 0.4 µM): 0.598
- relative viability (NCI-H1437; first compound 4 µM): 0.352
- relative viability (NCI-H358; first compound 0.04 µM): 0.654
- relative viability (NCI-H358; first compound 0.1265 µM): 0.66
- relative viability (NCI-H358; first compound 0.4 µM): 0.625
- relative viability (NCI-H358; first compound 4 µM): 0.178
- relative viability (EKVX; first compound 0.04 µM): 0.862
- relative viability (EKVX; first compound 0.1265 µM): 0.921
- relative viability (EKVX; first compound 0.4 µM): 0.914
- relative viability (EKVX; first compound 4 µM): 0.399
- relative viability (PC-3 [JPC-3]; first compound 0.04 µM): 1.17
- relative viability (PC-3 [JPC-3]; first compound 0.1265 µM): 1.08
- relative viability (PC-3 [JPC-3]; first compound 0.4 µM): 1.16
- relative viability (PC-3 [JPC-3]; first compound 4 µM): 0.608
- relative viability (NCI-H1395; first compound 0.1265 µM): 0.482
- relative viability (NCI-H1395; first compound 0.4 µM): 0.506
- relative viability (NCI-H1395; first compound 4 µM): 0.458
